Experimental data from patent US20160257697A1, “THIOPHENE-SUBSTITUTED TETRACYCLIC COMPOUNDS AND METHODS OFUSE THEREOF FOR THE TREATMENT OF VIRAL DISEASES” (priority 2013, published 2016).
Like-named read-outs stand apart in the source and are kept apart here.

Tests used:
Test in all cases: microbe, parasite or virus in culture
Assay type in all cases: cell-based, Hepatitis C virus (HCV)
HCV replicon 1A = conditions: Replicon Assay A
Method in brief: (§1)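 Read-out is replicon RNA per cell by real-time RT-PCR, normalised to cyclophilin mRNA amplified in the same well. Cells were exposed to compound for 3 days at 2000 cells/well in medium with 5% fetal bovine serum and 0.5% DMSO.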

HCV replicon 2B = conditions: Replicon Assay A
Method in brief: as §1

HCV replicon 1AY93H = conditions: Replicon Assay A
Method in brief: as §1

HCV replicon 1AQ30D = conditions: Replicon Assay B
HCV replicon 1B = conditions: Replicon Assay B
[1] = read-out: 1A Y93H IC50, replicon 1AY93H
[2] = read-out: 1A Q30D IC50, replicon 1AQ30D
[3] = Hepatitis C virus, read-out: 1A Q30D IC50 (nM), replicon 1AQ30D
[4] = Hepatitis C virus, read-out: 2B IC50 (nM), replicon 2B
[5] = Hepatitis C virus, read-out: 1A Y93H IC50 (nM), replicon 1AY93H

SMILES	IC50 (HCV replicon 1A; replicon 1A) [pM]	IC50 (HCV replicon 2B; read-out: 2B IC50, replicon 2B) [nM]	IC50 (HCV replicon 1AY93H; [1]) [nM]	IC50 (HCV replicon 1AQ30D; [2]) [nM]	IC50 (HCV replicon 1B; replicon 1B) [pM]	IC50 (HCV replicon 1AQ30D; [3]) [nM]	IC50 (HCV replicon 1B; Hepatitis C virus, replicon 1B) [pM]	IC50 (HCV replicon 1A; Hepatitis C virus, replicon 1A) [pM]	IC50 (HCV replicon 2B; [4]) [nM]	IC50 (HCV replicon 1AY93H; [5]) [nM]	further results
COC(=O)NC(C(=O)N1CCC[C@H]1c1ncc(-c2ccc3c(c2)cc2n3C(c3ccc(C4CC4)s3)Oc3cc(-c4cnc([C@@H]5CCCN5C(=O)[C@@H](NC(=O)OC)C(C)C)[nH]4)cc(F)c3-2)[nH]1)C1CCO[C@H](C)C1 (single isomer, unassigned) [Compound 138]	1.3	0.061	0.019	0.67	1.4						
COC(=O)NC(C(=O)N1CCC[C@H]1c1ncc(-c2cc(F)c3c(c2)OC(c2ccc(C)s2)n2c-3cc3cc(-c4cnc([C@@H]5CCCN5C(=O)[C@@H](NC(=O)OC)C5CCOCC5)[nH]4)ccc32)[nH]1)C(C)(C)F (single isomer, unassigned) [Compound 105]	1.5				2.9						IC50 (HCV replicon 2B; replicon 2B, read-out: 2B IC50): 0.012 nM; IC50 (HCV replicon 1AY93H; replicon 1AY93H, read-out: 1A Y93H IC50): 0.01 nM; IC50 (HCV replicon 1AQ30D; replicon 1AQ30D, read-out: 1A Q30D IC50): 0.03 nM
COC(=O)NC(C(=O)N1CCC[C@H]1c1ncc(-c2ccc3c(c2)cc2n3C(c3ccc(C4CC4)s3)Oc3cc(-c4cnc([C@@H]5CCCN5C(=O)[C@@H](NC(=O)OC)C(C)C)[nH]4)cc(F)c3-2)[nH]1)C(C)(C)F (single isomer, unassigned) [Compound 75]	3	0.041	0.021			0.27	3.1				
COCc1ccc(C2Oc3cc(-c4cnc([C@@H]5CCCN5C(=O)[C@@H](NC(=O)OC)C(C)C)[nH]4)cc(F)c3-c3cc4cc(-c5c[nH]c([C@@H]6CCCN6C(=O)[C@@H](NC(=O)OC)C(C)C)n5)ccc4n32)s1 (single isomer, unassigned) [Compound 513]											IC50 (HCV replicon 1A; HCV replicon 1A): 3.93 pM; IC50 (HCV replicon 2B; read-out: 2B IC50, HCV replicon 2B): 0.409 nM; IC50 (HCV replicon 1AY93H; read-out: 1A Y93H IC50, HCV replicon 1A Y93H): 0.0385 nM; IC50 (HCV replicon 1AQ30D; Hepatitis C virus, read-out: 1A Q30D IC50, HCV replicon 1A Q30D): 0.986 nM; IC50 (HCV replicon 1B; Hepatitis C virus, HCV replicon 1B): 4.25 pM
COC(=O)N[C@H](C(=O)N1CCC[C@@H]1c1ncc(-c2cc(F)c3c(c2)OC(c2ccc(C(C)C)s2)n2c-3cc3cc(-c4c[nH]c([C@@H]5C[C@@H]6C[C@@H]6N5C(=O)[C@H](NC(=O)OC)C5C[C@@H](C)O[C@@H](C)C5)n4)ccc32)[nH]1)C(C)C (some centres unmarked) [Compound 284]						0.021	2.1	1.8	0.024	0.002	
COC(=O)N[C@H](C(=O)N1CCC[C@H]1c1ncc(-c2cc(F)c3c(c2)OC(c2ccc(C4CC4)s2)n2c-3cc3cc(-c4cnc([C@@H]5CCCN5C(=O)[C@@H](NC(=O)OC)C5C[C@@H](C)O[C@@H](C)C5)[nH]4)ccc32)[nH]1)C1C[C@@H](C)O[C@@H](C)C1 (some centres unmarked) [Compound 303]						0.008	1.3	2.6	0.003	0.002	
COC(=O)NC(C(=O)N1CCC[C@H]1c1ncc(-c2ccc3c(c2)cc2n3C(c3ccc(C4CC4)s3)Oc3cc(-c4cnc([C@@H]5CCCN5C(=O)[C@@H](NC(=O)OC)C(C)C)[nH]4)cc(F)c3-2)[nH]1)C1C[C@@H](C)O[C@@H](C)C1 (single isomer, unassigned) [Compound 206]						2.91	2.6	1.4	0.16	0.16	
COC(=O)NC(C(=O)N1CCC[C@H]1c1ncc(-c2ccc3c(c2)cc2n3C(c3ccc(CC4CC4)s3)Oc3cc(-c4cnc([C@@H]5CCCN5C(=O)[C@@H](NC(=O)OC)C(C)C)[nH]4)cc(F)c3-2)[nH]1)C1CCO[C@H](C)C1 (some centres unmarked) [Compound 368]	2.6	0.0028	0.0047	0.0304	3.1						
COC(=O)NC(C(=O)N1CCC[C@H]1c1ncc(-c2ccc3c(c2)cc2n3C(c3cc4ccccc4s3)Oc3cc(-c4cnc([C@@H]5CCCN5C(=O)[C@@H](NC(=O)OC)C5CCOCC5)[nH]4)cc(F)c3-2)[nH]1)C(C)(C)F (single isomer, unassigned) [Compound 185]	4.6	1.35	2.4	2.95	2.6						
COC(=O)N[C@H](C(=O)N1CCC[C@@H]1c1ncc(-c2cc(F)c3c(c2)OC(c2ccc(C(C)C)s2)n2c-3cc3cc(-c4c[nH]c([C@@H]5CCCN5C(=O)[C@H](NC(=O)OC)C5C[C@@H](C)O[C@@H](C)C5)n4)ccc32)[nH]1)C(C)C (some centres unmarked) [Compound 240]	2.1	0.011	0.005	0.062	2.7						
